“Also recorded” adds a separate entry of the source.
What was measured:
Type in all cases: cell-based
[1] = system: neonatal rat cardiac myocytes; test: Cellular acid phosphatase activity in cultured cardiac myocytes; details: RA 2 μM; various times
Method: FIG. 6. is a graph summarizing data on the effect of RA on cellular acid phosphatase activity. Cultured neonatal rat cardiac myocytes were treated with 2 μM RA at 37° C. for various time, washed and harvested. Cellular proteins were then solubilized by sonication and acid phosphatase activity was assayed using a Diagnostics Acid Phosphatase kit (Sigma). Dotted line represents control cells. Solid line represents RA-treated cells. Bars represent standard error or the mean (n=4).
The primary functions of the Man-6-P/IGF-II receptor are to mediate endocytosis of extracellular M6P-containing proteins (e.g. lysosomal enzymes) and IGF-II and to sort newly synthesized lysosomal enzymes. Therefore, an important question raised by the direct interaction of RA with M6P/IGF2R is whether RA influences these functions of the receptor. To answer this question, we examined the effect of RA on endocytosis of exogenous β-glucuronidase and ^125I-IGF-II and intracellular activity of acid phosphatase in cultured neonatal rat cardiac myocytes, which were known to express high levels of the M6P/IGF-II receptor (Nissley et al., 1993, Mol. Reprod. Dev. 35:408-413). […] This indicated an increased sorting of lysosomal enzymes) (FIGS. 4-6). […] These effects of RA were not altered in the presence of a protein synthesis inhibitor (0.5 mM cycloheximide) and were not observed in the receptor-negative P388D1 cells. […]

neonatal rat fibroblasts = test: Immunofluorescence of cathepsin B distribution in fibroblasts; details: RA 1 μM for 3 h; neonatal rat fibroblasts
Excerpt: FIGS. 8A and 8B are photomicrographs showing effect of retinoic acid on the distribution of cathepsin B in neonatal rat fibroblasts. […] The enzyme was found mainly in the perinuclear area. […] Bar represents 4 μm.
Since biosynthetic transport of lysosomal enzymes from the TGN to endosomes/lysosomes is mainly mediated by the M6P/IGF2R (Sohar et al., 1998, Biochem. J. 330:903-908), an enhanced trafficking of the receptor should lead to an increased translocation of the M6P-containing lysosomal enzymes from the TGN to lysosomes. To test this, we examined the effect of RA on the intracellular distribution of cathepsin B, a lysosomal protease known to be transported in a M6P-dependent manner in fibroblasts (Hanewinkel et al., 1987, J. Diol. Chem. 262:12351-12355). […] The distribution was similar to that of M6P/IGF2R (shift from perinuclear area to cytoplasmic vesicles throughout the cytoplasm).
Intracellular Trafficking Materials Retinoic acid was obtained from Sigma Chem. Co. (St. Louis, Mo.). The synthetic retinoids used (AGN193109, TTNPB) were produced by Allergan Inc. (Irvine, Calif.). Stably-transfected P388D1 cells re-expressing the M6P/IGF2R were provided by Dr. William S. Sly (St. Louis University). The rabbit polyclonal antibody against the rat M6P/IGF-II receptor was a gift from Dr. R.G. MacDonald (University of Nebraska). […]

[2] = system: neonatal rat cardiac myocytes; test: Growth, morphology and apoptosis of cardiac myocytes
Method: Cultured neonatal rat cardiac myocytes were known to express high levels of the M6P/IGF2R protein. The effect of RA on the growth of normal, neonatal rat cardiac myocytes was examined.
Cell Isolation and Culture For the photoaffinity labeling experiments, cardiac myocytes were isolated from 1-day-old neonatal Sprague-Dawley rats, using the Neonatal Cardiomyocyte Isolation System (Worthington). The isolated cell were cultured on Petri dishes with culture medium (F-10 nutrient mixture/10% horse serum/5% fetal bovine serum/50 μg/ml streptomycin/50 units/ml penicillin G). Cells were used for experiments after 2-6 days of culture.

CC1=C(/C=C/C(C)=C/C=C/C(C)=C/C(=O)O)C(C)(C)CCC1 [RA, all-trans-retinoic acid]
Cellular acid phosphatase activity [1]: induced a transient cellular accumulation of acid phosphatase | Intracellular distribution of cathepsin B (neonatal rat fibroblasts): translocated from the perinuclear area to the cytoplasmic vesicles; also recorded: remarkable change in cathepsin B distribution | Cell morphology and growth ([2]; 48 hours): marked alteration of cell morphology, and inhibition of growth | Apoptotic cells (Hoechst 33258 nuclear staining) ([2]; RA-treated cultures vs controls): many more apoptotic cells

From patent US6596500B1, “Binding of retinoids to M6P/IGF-II receptor” (The General Hospital Corporation, priority 1998, dated 2003)
